Key:
Settings in all cases: 72 h
HepG2 [1] = assay: drug sensitivity score (DSS) for viability; higher = more toxic; extreme values may be limits of the assay
U2OS [2] = assay: as above
Calu-3 [3] = assay: as above
Vero E6 [4] = assay: as above
Caco-2 [5] = assay: as above
Calu-3 [6] = assay: relative viability EC50 (midpoint between 100% and the lowest measured viability); higher = less toxic
Vero E6 [7] = assay: as above
HepG2 [8] = assay: cell viability relative to DMSO; higher = less toxic
U2OS [9] = assay: as above
Caco-2 [10] = assay: as above
Calu-3 [11] = assay: as above
Vero E6 [12] = assay: as above
HepG2 [13] = assay: relative viability EC50 (midpoint between 100% and the lowest measured viability); higher = less toxic
Caco-2 [14] = assay: as above

SMILES | drug sensitivity score (HepG2 [1]) | drug sensitivity score (U2OS [2]) | drug sensitivity score (Calu-3 [3]) | drug sensitivity score (Vero E6 [4]) | drug sensitivity score (Caco-2 [5]) | relative viability EC50 (Calu-3 [6]) [µM] | relative viability EC50 (Vero E6 [7]) [µM] | cell viability (HepG2 [8]; 1 nM) [%] | cell viability (HepG2 [8]; 10 nM) [%] | cell viability (HepG2 [8]; 100 nM) [%] | cell viability (HepG2 [8]; 1000 nM) [%] | cell viability (HepG2 [8]; 10000 nM) [%] | cell viability (U2OS [9]; 1 nM) [%] | cell viability (U2OS [9]; 10 nM) [%] | cell viability (U2OS [9]; 100 nM) [%] | cell viability (U2OS [9]; 1000 nM) [%] | cell viability (U2OS [9]; 10000 nM) [%] | cell viability (Caco-2 [10]; 1 nM) [%] | cell viability (Caco-2 [10]; 10 nM) [%] | cell viability (Caco-2 [10]; 100 nM) [%] | cell viability (Caco-2 [10]; 1000 nM) [%] | cell viability (Caco-2 [10]; 10000 nM) [%] | cell viability (Calu-3 [11]; 1 nM) [%] | cell viability (Calu-3 [11]; 10 nM) [%] | cell viability (Calu-3 [11]; 100 nM) [%] | cell viability (Calu-3 [11]; 1000 nM) [%] | cell viability (Calu-3 [11]; 10000 nM) [%] | cell viability (Vero E6 [12]; 1 nM) [%] | cell viability (Vero E6 [12]; 10 nM) [%] | cell viability (Vero E6 [12]; 100 nM) [%] | cell viability (Vero E6 [12]; 1000 nM) [%] | cell viability (Vero E6 [12]; 10000 nM) [%] | relative viability EC50 (HepG2 [13]) [µM] | relative viability EC50 (Caco-2 [14]) [µM]
Cn1c(=O)c2c(ncn2CC2OCCO2)n(C)c1=O [doxofylline] | 1.3 | 0 | 0 | 0 |  |  |  |  |  |  |  |  |  |  |  |  |  |  |  |  |  |  |  |  |  |  |  |  |  |  |  |  |  | 
C=CC(=O)Nc1ccc2ncnc(Nc3cccc(Br)c3)c2c1 | 2.7 | 3 | 21 | 13.6 | 6.7 | 0.0229 | 0.287 | 100 | 98.7 | 95.2 | 93.6 | 65 | 96.8 | 107 | 93 | 87.9 | 62.8 | 83.2 | 86.7 | 92 | 71 | 70.6 | 96 | 79.1 | 46.5 | 32.9 | 35.4 | 96.8 | 89.6 | 71 | 50.7 | 19.7 |  | 
NS(=O)(=O)c1cc(C(=O)O)c(NCc2ccco2)cc1Cl [furosemide] | 0 |  | 0 | 0 | 0 | > 10 | > 10 | 121 | 87.5 | 113 | 103 | 120 |  |  |  |  |  | 104 | 95.8 | 102 | 106 | 112 | 98.1 | 95.3 | 103 | 81.5 | 104 | 99.8 | 90.5 | 97.1 | 89.6 | 105 | > 10 | > 10
Cc1cccc(C)c1NC1=NCCCS1 [xylazine] |  |  | 0 | 0 | 0 | > 10 | > 10 |  |  |  |  |  |  |  |  |  |  | 105 | 101 | 98.7 | 104 | 92.1 | 94.4 | 102 | 92.1 | 114 | 90.2 | 113 | 105 | 106 | 102 | 98.5 |  | > 10
C=CCN1CCc2nc(N)sc2CC1 [talipexole] |  |  |  | 0 | 0 |  | > 10 |  |  |  |  |  |  |  |  |  |  | 102 | 104 | 99.2 | 106 | 102 |  |  |  |  |  | 103 | 107 | 98.1 | 100 | 100 |  | > 10

Source: the supplement of paper PMC13380429
